This note sets out measurements from patent publication US7501281B2, “Compositions, methods and kits related to thrombin, Notch signaling and stamatogenesis and growth of stem cells” (Maine Medical Center Research Institute, priority 2003, dated 2009).

Common to all, as to type: cell-based, murine
Test [1] relates to NIH 3T3 stable transfectants. As to the kind of experiment: Analysis of FGF1-induced spheroid formation. To be noted: for spheroid formation: 10 ng/ml FGF1, 10 U/ml heparin. The procedure: Clonal populations of NIH 3T3 stable transfectants were resuspended and grown in media containing 10% BCS, 10% BCS containing 1 μM PD166866, 10% BCS containing 10 ng/ml recombinant human FGF1 and 10 U/ml heparin or 10% BCS containing 10 ng/ml recombinant human FGF1, 10 U/ml heparin and 1 μM PD166866 as indicated in the figure legend. Approximately 2×10^5 cells were plated per well (6-well dish) and three days after plating, phase-contrast micrographs of the cells were taken.

Test [2] concerns NIH 3T3 stable transfectants. In words: Colony formation in soft agar. To be noted: for effect on colonies in soft agar: 10 ng/ml FGF1. The protocol:
Clonal populations of NIH 3T3 cells stably transfected with vector control, soluble Jagged1 (sJ1), constitutively active Notch1 (caN1), constitutively active Notch2 (caN2), dominant negative Notch 1 (dnN1), dominant negative Notch 2 (dnN2), an oncogenic mutant of FGF1 engineered with the FGF4 signal peptide sequence (hst-β (FGF4):FGF1), or constitutively active oncogenic Ras construct (caRas), were plated on 6 cm tissue culture dishes with 0.5% agar in an overlay containing DMEM (Gibco BRL) media, 10% bovine calf serum (BCS; Hyclone), and 0.33% agar at 1.5×10^3 cells/dish. As indicated, some dishes were also treated with 1 μM of the FGFR1-specific inhibitor, PD166866 (Panek et al., 1998, J. Pharmacol. Exp. Ther. 286: 569-577) and/or 10 ng/ml recombinant human FGF1 and 10 U/ml heparin (Sigma). Cells were fed with 0.5 ml of media with or without FGF1 and/or the FGFR1-specific inhibitor every 3 days as indicated. Twenty days after plating, colonies were stained with p-iodonitrotetrazolium violet (Sigma) for visualization. Quantitation of colony formation was achieved by counting all p-iodonitrotetrazolium violet-stained colonies consisting of more than 4 cells under a Zeiss Stemi SVII Apo dissecting microscope.

The subject of test [3] is Swiss 3T3 cells expressing a dominant-negative FGFR1 mutant. As to the kind of experiment: DNA synthesis assay, (3H)-thymidine autoradiography. Particulars: 10 ng/ml FGF1 plus 10 units/ml heparin. The procedure:
A combination of (^3H)-thymidine autoradiography and immunohistochemistry was used to evaluate the levels of DNA synthesis in Swiss 3T3 cells expressing a dominant-negative FGFR1 mutant. Swiss 3T3 cells were plated at 50% confluency on glass coverslips precoated with fibronectin (10 μg/cm^2) for 24 hours. The cells were transfected with the pCS2 vector expressing a dominant-negative X. laevis FGFR1 deletion mutant lacking the FGFR1 intracellular domain (a gift from Dr. R. Friesel) using the Fugene 6 reagent (Roche). After 24 hours, the medium was changed to DMEM containing 0.25% BCS and following a 48 hour incubation in low BCS, the cells were stimulated with either 10 μg/ml of α-thrombin, 10% BCS or 10 ng/ml of recombinant FGF1 plus 10 units/ml of heparin. After stimulation for 24 hours, (^3H)-thymidine (NEN; 1 μCi/ml) was added to the medium and cells were incubated for 12 hours and fixed with 4% neutral formaldehyde. […] The percentage of (^3H)-labeled nuclei among the dnFGFR1-positive and dnFGFR1-negative cells was quantitated using an inverted Olympus microscope.
Thus, a dominant-negative (dn) FGFR1 construct was expressed in Swiss 3T3 cells and their proliferative index measured in the presence and absence of exogenous thrombin.

For test [4], the system named is caN1/CSL transcription in NIH 3T3 transfectants. As to the kind of experiment: Transient transfection assay of CSL-regulated transcription. Particulars: 1, 2.5, 5 or 10 ng/ml FGF1. The procedure:
NIH 3T3 cells were plated onto fibronectin-coated (10 μg/cm2) 12-well tissue culture dishes and transiently transfected at approximately 80% confluency with 500 ng of a Luciferase construct activated by 4 tandem copies of the CSL (CBF1) response element (Hsieh et al. 1996, Mol. Cell. Biol. 16: 952-959), 100 ng of the TK Renilla (Promega) construct as an internal control for transfection efficiency, and 500 ng of either vector control, sJ1 or caN1 constructs using Fugene 6 (Roche) per manufacturer's instructions. For analysis of caN1 activity in the background of NIH 3T3 stable lines, vector control, caN1, sJ1 and hst-β(FGF4):FGF1 stable transfectants were plated onto fibronectin-coated (10 μg/cm2) 12-well tissue culture dishes and transiently transfected with 500 ng of the CSL-Luciferase construct, 100 ng of the TK Renilla (Promega) construct as an internal control for transfection efficiency, and 200 ng of caN1. […] The cells were harvested 48 hours after the media change and Luciferase/Renilla activity was measured using Promega's Dual-Luciferase Reporter Assay System. The efficiency of transcription was measured and normalized in relationship to the activity of pRL-TK Renilla and the activity is reported as the ratio of Luciferase/Renilla activity. […]

Test [5] deals with Jagged1 in NIH 3T3 stable transfectants. As to the kind of experiment: Immunoblot analysis of Jagged1 expression. Particulars: 10 ng/ml FGF1 and 10 U/ml heparin; all stable lines examined. The protocol:
Vector control, SJ1, CaN1, J1, Hstβ(FGF4):FGF1 and sJ1:caN1 stable NIH 3T3 cell transfectants were plated on tissue culture dishes in either normal growth media (DMEM (Gibco BRL) media, 10% bovine calf serum (BCS; Hyclone)) or normal growth media containing 10 ng/ml recombinant FGF1 and 10 U/ml heparin. Cells were harvested at confluency (based on status of vector control cells grown in normal growth media).
Because hst-β(FGF4):FGF1 stable transfectants and the sJ1 transfectants grown in FGF1-containing media form spheroids, all cells were harvested by scraping in the presence of the growth media dn then the cells/growth media was collected into sterile 15 ml conical tubes. Cells were pelleted by centrifugation at 800×g for 5′ at 4° C. After centrifugation, the supernatant was removed and the cell pellets were washed 3× with 1×PBS. Cells were lysed in 500 μl in 20 mM tris, pH 7.5 containing 300 mM sucrose, 60 mM KCl, 15 mM NaCl, 0.5 mM EDTA, 0.5% (v/v) Triton X-100 1 mM Phenymethyl sulfonyl flouride, 0.1% SDS, 2 μg/ml aprotinin, 10 μg/ml aprotinin, 10 μg/ml leupeptin, and 1 mM sodium orthovanadate for 15 minutes on ice. Cell lysates were pelleted and the supernatant containing soluble proteins removed.
Samples were normalized to protein concentration using the BCA Protein Assay Kit (Pierce). […]

For test [6], the system named is Notch-dependent CSL1 activity in full-length Jagged1 NIH 3T3 cell transfectants. As to the kind of experiment: Dual Luciferase Reporter Assay of CSL1-dependent transcription. (In a reporter assay the amount or activity of a reporter protein is the signal.)

Turning to `COc1cc(OC)cc(-c2cc3cnc(N)nc3nc2NC(=O)NC(C)(C)C)c1` [PD166866], the “effect on FGF1-induced spheroid formation” value in test [1] (1 μM PD166866, sJ1, dnN1 and hst-β (FGF4):FGF1 stable transfectants) is on record as “completely abolished”. In addition, the “effect on colony formation” value in test [2] (1 μM PD166866, caRas cells) is reported as “no effect”. In addition, in test [2] (1 μM PD166866, sJ1, dnN1 and hst-β (FGF4):FGF1 transfectants), the “effect on FGF1-mediated colony formation” value is given as “substantially reduced”. For the same compound, in test [2] (1 μM PD166866, sJ1 and dnN1 in the absence of FGF1), the “effect on small colony growth” value is reported as “inhibited”.
Consider “FGF1: recombinant human fibroblast growth factor 1, added with heparin”, for which the “reduction by dnFGFR1 expression of the ability to induce replicating nuclei” value in test [3] is “approximately 70%”. Also, in test [4], the “effect on caN1/CSL transcription” value is “repressed caN1/CSL transcription in a dose-dependent fashion”. The spheroid formation result in test [1] (Notch-repressed cells (sJ1, dnN1)) is on record as “formed multicellular, spheroid-like structures”; in test [1] (vector control and caN1 transfectants) it was “did not form spheroids”. Besides, the “effect on colonies in soft agar” value in test [2] (caN1 and vector control transfectants) was “either no effect or only resulted in the formation of sparse and very small colonies”; in test [2] (sJ1 and dnN1 transfectants) it was “greatly exaggerated the size of the colonies”. The “effect on Jagged1 expression” value in test [5] was “increased Jagged1 expression”. Further, the “CSL1-dependent transcription, of the control level” value in test [6] (10 ng/ml exogenous FGF1) was “approximately 25%”.
As for heparin [reference compound], the “effect of heparin on thrombin-dependent repression of CSL1-dependent transcription” value in test [6] (heparin 5 units/ml with thrombin 10 μg/ml) is “able to potentiate”. Moreover, the “effect on CSL1-dependent transcription” value in test [6] (heparin by itself) and in test [6] (heparin in the presence of 10 μM TRAP) was “ineffective” throughout.
